# According to ChEMBL document CHEMBL1154790, “Lorneic acids, trialkyl-substituted aromatic acids from a marine-derived actinomycete” (J Nat Prod, 2009):
# Activity calls are given as the source filed them. No cut-off for these calls is given here.
# Legend:
# [1] = molecular target: T1, cGMP-specific 3',5'-cyclic phosphodiesterase (Homo sapiens, UniProt O76074); assay: Inhibition of human platelet PDE5 assessed as [3H]cGMP to [3H]GMP conversion pretreated 15 mins before substrate addition measured after 20 mins
# [2] = molecular target: T1, cGMP-specific 3',5'-cyclic phosphodiesterase; assay: Inhibition of human platelet PDE5 assessed as [3H]cGMP to [3H]GMP conversion at 10 uM pretreated 15 mins before substrate addition measured after 20 mins
Compound,IC50 [1],inhibition [2]
CCCCCC(O)c1cc(C)ccc1/C=C/CC(=O)O (stereo not drawn) [LORNEIC ACID B],87.1 µM,
CCCC/C=C/c1cc(C)ccc1/C=C/CC(=O)O [LORNEIC ACID A],12.6 µM,Active
